What was measured:
Format in all cases: in vivo
[1] = tested on: giant foxtail (Setaria faberii); assay: Test A preemergence
How it was run: (§1)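 Preemergence directed soil spray on seeded pots, or postemergence application to plants 2–10 cm, one- to two-leaf. Solvent mixture non-phytotoxic, with surfactant. Scored ~10 d later, visually, 0–100 vs untreated.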

[2] = tested on: ryegrass, Italian (Italian ryegrass, Lolium multiflorum); assay: Test A preemergence
How it was run: as §1

[3] = tested on: pigweed (Amaranthus retroflexus); assay: Test A preemergence
[4] = tested on: ragweed (common ragweed, Ambrosia elatior); assay: Test A preemergence
How it was run: as §1

Kochia (Kochia scoparia) [5] = assay: Test A preemergence
How it was run: as §1

[6] = tested on: barnyardgrass (Echinochloa crus-galli); assay: Test A preemergence
How it was run: as §1

[7] = tested on: giant foxtail (Setaria faberii); assay: Test A postemergence; conditions: postemergence; for Plant response rating, Foxtail, Giant: 0 to 100 scale (0 no effect, 100 complete control)
How it was run: as §1

[8] = tested on: ryegrass, Italian (Italian ryegrass, Lolium multiflorum); assay: Test A postemergence; conditions: postemergence; for Plant response rating, Ryegrass, Italian: 0 to 100 scale (0 no effect, 100 complete control)
How it was run: as §1

corn (Zea mays) = assay: Test A postemergence; conditions: postemergence; for Plant response rating, Corn: 0 to 100 scale (0 no effect, 100 complete control)
How it was run: as §1

[9] = tested on: wheat (Triticum aestivum); assay: Test A postemergence; conditions: postemergence; for Plant response rating, Wheat: 0 to 100 scale (0 no effect, 100 complete control)
How it was run: as §1

[10] = tested on: pigweed (Amaranthus retroflexus); assay: Test A postemergence; conditions: postemergence; for Plant response rating, Pigweed: 0 to 100 scale (0 no effect, 100 complete control)
How it was run: as §1

[11] = tested on: ragweed (common ragweed, Ambrosia elatior); assay: Test A postemergence; conditions: postemergence; for Plant response rating, Ragweed: 0 to 100 scale (0 no effect, 100 complete control)
How it was run: as §1

Kochia (Kochia scoparia) [12] = assay: Test A postemergence; conditions: postemergence; for Plant response rating, Kochia: 0 to 100 scale (0 no effect, 100 complete control)
How it was run: as §1

[13] = tested on: blackgrass (Alopecurus myosuroides); assay: Test A postemergence; conditions: postemergence; for Plant response rating, Blackgrass: 0 to 100 scale (0 no effect, 100 complete control)
How it was run: as §1

[14] = tested on: Galium (catchweed bedstraw, Galium aparine); assay: Test A postemergence; conditions: postemergence; for Plant response rating, Galium: 0 to 100 scale (0 no effect, 100 complete control)
How it was run: as §1

[15] = tested on: barnyardgrass (Echinochloa crus-galli); assay: Test A postemergence; conditions: postemergence; for Plant response rating, Barnyardgrass: 0 to 100 scale (0 no effect, 100 complete control)
How it was run: as §1

rice (Oryza sativa) = assay: Test C flooded paddy test; conditions: Flood; for Plant response rating (scale of 0 to 100), Rice: 0 is no effect, 100 is complete control
How it was run: (§2)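 Test compounds were dosed straight into the flood water of pots holding 2-leaf-stage plants, with water kept 3 cm above the soil. Greenhouse plants were scored visually against controls after 13 to 15 d, from 0 (no effect) to 100 (complete control).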

[16] = tested on: sedge, umbrella (small-flower umbrella sedge, Cyperus difformis); assay: Test C flooded paddy test; conditions: Flood; for Plant response rating (scale of 0 to 100), Sedge, Umbrella: 0 is no effect, 100 is complete control
How it was run: as §2

[17] = tested on: ducksalad (Heteranthera limosa); assay: Test C flooded paddy test; conditions: Flood; for Plant response rating (scale of 0 to 100), Ducksalad: 0 is no effect, 100 is complete control
How it was run: as §2

[18] = tested on: barnyardgrass (Echinochloa crus-galli); assay: Test C flooded paddy test; conditions: Flood; for Plant response rating (scale of 0 to 100), Barnyardgrass: 0 is no effect, 100 is complete control
How it was run: as §2

[19] = tested on: sedge, umbrella (small-flower umbrella sedge, Cyperus difformis); assay: Test B flooded paddy test; conditions: Flood, 250 g ai/ha; 0 to 100 scale where 0 is no effect and 100 is complete control; 13 to 15 d
How it was run: (§3)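 2-leaf plants; pots flooded 3 cm over soil; cpd added to paddy water; depth held; greenhouse 13–15 d; visual rating vs controls, 0 = no effect, 100 = complete control.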

rice (Oryra sativa) = assay: Test B flooded paddy test; conditions: Flood, 250 g ai/ha; 0 to 100 scale where 0 is no effect and 100 is complete control; 13 to 15 d
How it was run: as §3

[20] = tested on: ducksalad (Heteranthera limosa); assay: Test B flooded paddy test; conditions: Flood, 250 g ai/ha; 0 to 100 scale where 0 is no effect and 100 is complete control; 13 to 15 d
How it was run: as §3

[21] = tested on: barnyardgrass (Echinochloa crus-galli); assay: Test B flooded paddy test; conditions: Flood, 250 g ai/ha; 0 to 100 scale where 0 is no effect and 100 is complete control; 13 to 15 d
How it was run: as §3

[22] = tested on: morningglory (Ipomoea spp.); assay: Test A postemergence; conditions: Ipomoea, post-emergence, 240 h; 1000 g ai/ha, postemergence; 0 to 100 scale, 0 no effect, 100 complete control; read-out: Plant response rating, Morningglory
How it was run: as §1

[23] = 125 g ai/ha, Preemergence, visual injury after approximately 10 d, 0 to 100 scale where 0 is no effect and 100 is complete control
[24] = 500 g ai/ha, preemergence, 0 to 100 scale, 0 = no effect, 100 = complete control
[25] = 125 g ai/ha, visual rating after approx. 10 d
[26] = 500 g ai/ha, visual injury, approx. 10 d
[27] = 31 g ai/ha, scale 0 to 100 (0 no effect, 100 complete control), 13 to 15 d
[28] = Preemergence, 1000 g ai/ha, 0 is no effect, 100 is complete control

Cc1ccc(C2CN(C)C(=O)C2C(=O)Nc2ccc(F)cc2F)cc1 (stereo not drawn) [Compound 664]
Plant response rating, Foxtail, Giant [1, 23]: 90 | Plant response rating, Foxtail, Giant [1, 24]: 100 | Plant response rating, Ryegrass, Italian [2, 23]: 20 | Plant response rating, Ryegrass, Italian [2, 24]: 80 | Plant response rating, Pigweed [3, 23]: 60 | Plant response rating, Pigweed [3, 24]: 60 | Plant response rating, Ragweed [4, 23]: 20 | Plant response rating, Ragweed [4, 24]: 80 | Plant response rating, Kochia (Kochia (Kochia scoparia) [5]; [23]): 70 | Plant response rating, Kochia (Kochia (Kochia scoparia) [5]; [24]): 70 | Plant response rating, Barnyardgrass [6, 23]: 90 | Plant response rating, Barnyardgrass [6, 24]: 90 | Plant response rating, Foxtail, Giant [7, 25]: 90 | Plant response rating, Foxtail, Giant [7, 26]: 90 | Plant response rating, Ryegrass, Italian [8, 25]: 30 | Plant response rating, Ryegrass, Italian [8, 26]: 70 | Plant response rating, Corn (corn (Zea mays); [25]): 50 | Plant response rating, Corn (corn (Zea mays); [26]): 90 | Plant response rating, Wheat [9, 25]: 50 | Plant response rating, Wheat [9, 26]: 70 | Plant response rating, Pigweed [10, 25]: 20 | Plant response rating, Pigweed [10, 26]: 20 | Plant response rating, Ragweed [11, 25]: 10 | Plant response rating, Ragweed [11, 26]: 20 | Plant response rating, Kochia (Kochia (Kochia scoparia) [12]; [25]): 60 | Plant response rating, Kochia (Kochia (Kochia scoparia) [12]; [26]): 70 | Plant response rating, Blackgrass [13, 25]: 50 | Plant response rating, Blackgrass [13, 26]: 60 | Plant response rating, Galium [14, 25]: 50 | Plant response rating, Galium [14, 26]: 60 | Plant response rating, Barnyardgrass [15, 25]: 90 | Plant response rating, Barnyardgrass [15, 26]: 90 | Plant response rating, Rice (rice (Oryza sativa); [27]): 0 | Plant response rating (scale of 0 to 100), Rice (rice (Oryza sativa); 62 g ai/ha): 0 | Plant response rating (scale of 0 to 100), Rice (rice (Oryza sativa); 125 g ai/ha): 0 | Plant response rating (scale of 0 to 100), Rice (rice (Oryza sativa); 250 g ai/ha): 0 | Plant response rating, Sedge, Umbrella [16, 27]: 0 | Plant response rating (scale of 0 to 100), Sedge, Umbrella ([16]; 62 g ai/ha): 0 | Plant response rating (scale of 0 to 100), Sedge, Umbrella ([16]; 125 g ai/ha): 0 | Plant response rating (scale of 0 to 100), Sedge, Umbrella ([16]; 250 g ai/ha): 0 | Plant response rating, Ducksalad [17, 27]: 45 | Plant response rating (scale of 0 to 100), Ducksalad ([17]; 62 g ai/ha): 70 | Plant response rating (scale of 0 to 100), Ducksalad ([17]; 125 g ai/ha): 85 | Plant response rating (scale of 0 to 100), Ducksalad ([17]; 250 g ai/ha): 100 | Plant response rating, Barnyardgrass [18, 27]: 0 | Plant response rating (scale of 0 to 100), Barnyardgrass ([18]; 62 g ai/ha): 65 | Plant response rating (scale of 0 to 100), Barnyardgrass ([18]; 125 g ai/ha): 70 | Plant response rating (scale of 0 to 100), Barnyardgrass ([18]; 250 g ai/ha): 70 | Plant response rating, Sedge, Umbrella [19]: 0 | Plant response rating, Rice (rice (Oryra sativa)): 0 | Plant response rating, Ducksalad [20]: 100 | Plant response rating, Barnyardgrass [21]: 85

O=C(CN1C[C@H](c2cc(F)cc(F)c2)[C@@H](C(=O)Nc2cccc(F)c2F)C1=O)c1ccccc1 [Compound 784]
Foxtail, Giant plant response rating (0 to 100 scale) [1, 28]: 90 | Ryegrass, Italian plant response rating (0 to 100 scale) [2, 28]: 0 | Pigweed plant response rating (0 to 100 scale) [3, 28]: 0 | Ragweed plant response rating (0 to 100 scale) [4, 28]: 0 | Kochia plant response rating (0 to 100 scale) (Kochia (Kochia scoparia) [5]; [28]): 0 | Barnyardgrass plant response rating (0 to 100 scale) [6, 28]: 80 | pest or weed control at 1000 g/ha ([7]; Setaria faberi, post-emergence, 240 h, 1000 g ai/ha, 0 to 100 scale, 0 no effect, 100 complete control, read-out: Plant response rating, Foxtail, Giant): 90% | pest or weed control at 1000 g/ha ([8]; Lolium multiflorum, post-emergence, 240 h, 1000 g ai/ha, 0 to 100 scale, 0 no effect, 100 complete control, read-out: Plant response rating, Ryegrass, Italian): 0% | Corn plant response rating (crop injury, 0 = no effect, 100 = complete kill) at 1000 g/ha (corn (Zea mays); Zea mays, post-emergence, 240 h, 1000 g ai/ha, 0 to 100 scale, 0 no effect, 100 complete control): 0% | plant injury at 1000 g/ha ([9]; Triticum aestivum, post-emergence, 240 h, 1000 g ai/ha, 0 to 100 scale, 0 no effect, 100 complete control, read-out: Plant response rating, Wheat): 0% | pest or weed control at 1000 g/ha ([10]; Amaranthus retroflexus, post-emergence, 240 h, 1000 g ai/ha, 0 to 100 scale, 0 no effect, 100 complete control, read-out: Plant response rating, Pigweed): 0% | pest or weed control at 1000 g/ha ([11]; Ambrosia artemisiifolia, post-emergence, 240 h, 1000 g ai/ha, 0 to 100 scale, 0 no effect, 100 complete control, read-out: Plant response rating, Ragweed): 0% | pest or weed control at 1000 g/ha (Kochia (Kochia scoparia) [12]; Bassia scoparia, post-emergence, 240 h, 1000 g ai/ha, 0 to 100 scale, 0 no effect, 100 complete control, read-out: Plant response rating, Kochia): 0% | pest or weed control at 1000 g/ha ([13]; Alopecurus myosuroides, post-emergence, 240 h, 1000 g ai/ha, 0 to 100 scale, 0 no effect, 100 complete control, read-out: Plant response rating, Blackgrass): 20% | pest or weed control at 1000 g/ha [22]: 0% | pest or weed control at 1000 g/ha ([14]; Galium, post-emergence, 240 h, 1000 g ai/ha, 0 to 100 scale, 0 no effect, 100 complete control, read-out: Plant response rating, Galium): 0% | pest or weed control at 1000 g/ha ([15]; Echinochloa crus-galli, post-emergence, 240 h, 1000 g ai/ha, 0 to 100 scale, 0 no effect, 100 complete control, read-out: Plant response rating, Barnyardgrass): 90%
